According to patent US20060252807A1, “Novel ortho-terphenyl inhibitors of p38 kinase and methods of treating inflammatory disorders” (Kalypsys, Inc., priority 2005, published 2006):

Experiments:
[1] = target: T1, active p38 alpha enzyme (Upstate Biotechnology) (Homo sapiens, UniProt Q16539); experiment: p38α biochemical assay (ATP turnover, luminescent detection, Cambrex PKlight); conditions: Table 1 Biological Activity
T1 construct: purchased Upstate Biotechnology
Method in brief: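 Measures total ATP turnover by luminescence after human p38α phosphorylates full MapkapK2 protein. Final ATP is 1.4 uM, and incubation runs 2 hours at 30C. The buffer includes 100 mM MgCl2, 4 mM CaCl2 and 1 mg/ml BSA.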

TNF-α production = TNF-α production by LPS-stimulated rats (ELISA); type: in vivo, Male Lewis rats; conditions: rat, dose 10 mg/kg, −1 hr before LPS; read-out: LPS Induced TNF alpha (−1 hr) In Vivo (+) = >15% Inhibition (−) = ≦15% Inhibition
Experimental: TNF-α Production by LPS-Stimulated Mice
Male Lewis rats (180-200 g) were injected intraperitoneally with lipopolysaccharide (LPS) (50 μg/kg of E. coli strain 0111:B4, Sigma) suspended in sterile saline. Ninety minutes later, mice were sedated by CO2:O2 inhalation and a blood sample was obtained. Serum was separated and analyzed for TNF-α concentrations by commercial ELISA assay per the manufacturer's instructions (R&D Bioscience). Test compounds were administered orally at various times before LPS injection. The compounds were dosed either as suspensions or as solutions in various vehicles or solubilizing agents.
Compounds were dosed 0.5 to 3 hours before LPS stimulation. Rats were anaesthetized with Isofluor and injected i.v. with 0.3 mg/kg of LPS* in a volume of 0.3 ml sterile saline. Ninety minutes after the LPS injection, blood samples were collected into heparin tubes for preparation of plasma samples. Repression of TNFα production is assessed by commercial ELISA and reported below in Table 2.

T1 sequence (Q16539 whole entry): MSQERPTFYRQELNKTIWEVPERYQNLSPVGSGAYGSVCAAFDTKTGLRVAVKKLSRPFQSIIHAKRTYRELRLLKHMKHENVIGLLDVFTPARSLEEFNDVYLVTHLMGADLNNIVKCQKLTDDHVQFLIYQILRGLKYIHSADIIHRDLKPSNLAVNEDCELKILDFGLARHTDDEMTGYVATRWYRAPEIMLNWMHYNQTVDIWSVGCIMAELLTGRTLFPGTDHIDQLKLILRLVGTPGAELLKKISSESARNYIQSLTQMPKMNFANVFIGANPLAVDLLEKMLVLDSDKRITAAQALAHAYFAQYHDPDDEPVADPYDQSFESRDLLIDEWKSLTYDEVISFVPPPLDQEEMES

Compound	IC50 ([1]; p38α biochemical assay) [nM]	inhibition at 10 mg/kg (TNF-α production) [%]	IC50 ([1]; p38α kinase) [nM]
CCNC(=O)c1csc(-c2c(-c3ccc(F)cc3)n[nH]c2C2CCN(C(=O)CO)CC2)n1 [Example 64, 2-{3-(4-Fluoro-phenyl)-5-|1-(2-hydroxy-acetyl)-piperidin-4-yl|-1H-pyrazol-4-yl}-thiazole-4-carboxylic acid ethylamide]	≤ 1000	≤ 15	
C#CCNC(=O)c1csc(-c2c(-c3ccc(F)cc3)n[nH]c2C2CCN(C(=O)CO)CC2)n1 [Example 66, 2-{3-(4-Fluoro-phenyl)-5-|1-(2-hydroxy-acetyl)-piperidin-4-yl|-1H-pyrazol-4-yl}-thiazole-4-carboxylic acid prop-2-ynylamide]	≤ 1000	≤ 15	
O=C(NCc1cccnc1)c1csc(-c2c(-c3ccc(F)cc3)n[nH]c2C2CCN(C(=O)CO)CC2)n1 [Example 68, 2-{3-(4-Fluoro-phenyl)-5-|1-(2-hydroxy-acetyl)-piperidin-4-yl|-1H-pyrazol-4-yl}thiazole-4-carboxylic acid (pyridin-3-ylmethyl)-amide]	≤ 1000	> 15	
CONC(=O)c1csc(-c2c(-c3ccc(F)cc3)n[nH]c2C2CCNCC2)n1 [Example 71, 2-|3-(4-Fluoro-phenyl)-5-piperidin-4-yl-1H-pyrazol-4-yl|-thiazole-4-carboxylic acid methoxy-amide]	≤ 1000	≤ 15	
Cc1[nH]nc(-c2ccc(F)cc2)c1-c1nc(C(=O)NCC2CC2)cs1 [Example 73, 2-|3-(4-Fluoro-phenyl)-5-methyl-1H-pyrazol-4-yl|-thiazole-4-carboxylic acid cyclopropylmethyl-amide]	≤ 1000	≤ 15	
C#CCNC(=O)c1csc(-c2c(-c3ccc(F)cc3)n[nH]c2C)n1 [Example 78, 2-|3-(4-Fluoro-phenyl)-5-methyl-1H-pyrazol-4-yl|-thiazole-4-carboxylic acid prop-2-ynylamide]	≤ 1000	≤ 15	
CC(C)NC(=O)c1csc(-c2c(-c3ccc(F)cc3)ncn2C2CCNCC2)n1 [Example 91, 2-|5-(4-Fluoro-phenyl)-3-piperidin-4-yl-3H-imidazol-4-yl|-thiazole-4-carboxylic acid isopropylamide]	≤ 1000	> 15	
CC(C)NC(=O)c1csc(-c2c(-c3ccc(F)cc3)ncn2C2CCN(C(=O)CO)CC2)n1 [Example 93, 2-{5-(4-Fluoro-phenyl)-3-|1-(2-hydroxy-acetyl)-piperidin-4-yl|-3H-imidazol-4-yl}-thiazole-4-carboxylic acid isopropylamide]	≤ 1000	> 15	
CC(C)NC(=O)c1csc(-c2c(-c3ccc(F)cc3)n[nH]c2C2CCNCC2)n1 [Example 811]		> 15	≤ 1000
CCNC(=O)c1csc(-c2c(-c3ccc(F)cc3)n[nH]c2C2CCNCC2)n1 [Example 2026]		> 15	≤ 1000
C#CCNC(=O)c1csc(-c2c(-c3ccc(F)cc3)n[nH]c2C2CCNCC2)n1 [Example 2027]		> 15	≤ 1000
O=C(NCc1cccnc1)c1csc(-c2c(-c3ccc(F)cc3)n[nH]c2C2CCNCC2)n1 [Example 2028]		≤ 15	≤ 1000
